The values that follow come from ChEMBL document CHEMBL3112514, “Insights into antioxidant activity of 1-adamantylthiopyridine analogs using multiple linear regression” (Eur J Med Chem, 2014).

By inhibition is commonly meant how much of the control response was suppressed.

Assay [1] in a line: Antioxidant activity assessed as inhibition of photoreduction of nitro blue tetrazolium after 7 mins by SOD activity assay. It is filed as functional. On the set-up: concentration or dose not given beside the values.
Assay [2] deals with Radical scavenging activity. The assay is described as follows: Antioxidant activity assessed as DPPH radical scavenging activity. On the set-up: concentration or dose not given beside the values. It is filed as functional. (In general: The DPPH test is a chemical assay of radical scavenging.)

Take `O=C(O)c1cccnc1SC12CC3CC(CC(C3)C1)C2`: the inhibition in assay [1] worked out at 15.4%. Further, the Activity in assay [2] amounted to 33.2%.

On to `CC(=O)Oc1cccnc1SC12CC3CC(CC(C3)C1)C2`, for which the inhibition in assay [1] stood at 16.8%. Further, the Activity in assay [2] was 7.03%.

For `Brc1cncc(SC23CC4CC(CC(C4)C2)C3)c1`, the inhibition in assay [1] turned out to be 53.3%. For the same compound, the Activity in assay [2] stood at 17.1%.

`CCOc1cccnc1SC12CC3CC(CC(C3)C1)C2`: in assay [1], the inhibition was 31.8%. For the same compound, in assay [2], the Activity came to 14.2%.

In the case of `N#Cc1cccnc1SC12CC3CC(CC(C3)C1)C2`, the inhibition in assay [1] came out at 17.3%. Further, the Activity in assay [2] came to 0.3%.

As for `NC(=O)c1cccnc1SC12CC3CC(CC(C3)C1)C2`, in assay [1], the inhibition amounted to 15.4%. The Activity in assay [2] is 0.57%.

For the compound `Brc1cccnc1SC12CC3CC(CC(C3)C1)C2`, the inhibition in assay [1] was determined as 17.2%. Moreover, the Activity in assay [2] was 21.1%.

For the compound `Oc1ccc(SC23CC4CC(CC(C4)C2)C3)nc1`, in assay [1], the inhibition was found to be 45.5%. Moreover, the Activity in assay [2] was 0.3%.

On to `CC(=O)N(C(C)=O)c1cccnc1SC12CC3CC(CC(C3)C1)C2`, for which the Activity in assay [2] turned out to be 17.7%.
